Experimental data reported in ChEMBL document CHEMBL1201862, “PubChem BioAssay data set” (2004).
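Results reflect a 48-hour exposure of cells in 96-well plates to compound at five concentrations. At the GI50, growth is halved.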 Calls of active or inactive are those of the source. No stated cut-off is given here; in the data, active = GI50 up to about 1.1 µM and inactive = higher.

Columns and labels:
Experiment in all cases: NCI anticancer screen, dose series, 48 h
[1] = system: HOP-62
[2] = system: RPMI-8226
[3] = system: SW-620
[4] = system: HCC 2998
[5] = system: ACHN
[6] = system: IGROV-1
[7] = system: NCI/ADR-RES
[8] = system: SK-OV-3
[9] = system: UACC-257
[10] = system: PC-3
[11] = system: TK-10
[12] = system: SK-MEL-5
[13] = system: A549
[14] = system: Hs-578T
[15] = system: SN12C
[16] = system: MCF7
[17] = system: T47D
[18] = system: BT-549
[19] = system: DU-145
[20] = system: HCT-15
[21] = system: NCI-H460
[22] = system: U-251
[23] = system: SNB-19
[24] = system: SK-MEL-28
[25] = system: OVCAR-3
[26] = system: SF-268
[27] = system: SF-295
[28] = system: LOX IMVI
[29] = system: KM12
[30] = system: UACC-62
[31] = system: OVCAR-8
[32] = system: NCI-H226
[33] = system: OVCAR-4
[34] = system: HCT-116
[35] = system: OVCAR-5
[36] = system: COLO 205
[37] = system: M14
[38] = system: MDA-MB-231
[39] = system: HT-29
[40] = system: MDA-MB-435
[41] = system: K562
[42] = system: SK-MEL-2
[43] = system: SNB-75
[44] = system: EKVX
[45] = system: SR
[46] = system: UO-31
[47] = system: MOLT-4
[48] = system: Malme-3M
[49] = system: SF-539
[50] = system: MDA-N
[51] = system: 786-0
[52] = system: NCI-H23
[53] = system: HL-60
[54] = system: CAKI-1
[55] = system: HOP-92
[56] = system: RXF 393
[57] = system: A498
[58] = system: CCRF-CEM

## CC12c3c4cc(Br)cc3Oc3cc(Br)cc(c31)Oc1cc(Br)cc(c12)O4
[1]
  GI50: 60.4 µM (inactive)
[2]
  GI50: 19.4 µM (inactive)
[3]
  GI50: 24.6 µM (inactive)
[4]
  GI50: 81.5 µM (inactive)
[5]
  GI50: 51.9 µM (inactive)
[6]
  GI50: 22.8 µM (inactive)
[7]
  GI50: 19.8 µM (inactive)
[8]
  GI50: > 100 µM (inactive)
[9]
  GI50: 36.9 µM (inactive)
[10]
  GI50: 21 µM (inactive)
[11]
  GI50: 41.1 µM (inactive)
[12]
  GI50: 27.6 µM (inactive)
[13]
  GI50: 44.8 µM (inactive)
[14]
  GI50: > 100 µM (inactive)
[15]
  GI50: 31 µM (inactive)
[16]
  GI50: 43.4 µM (inactive)
[17]
  GI50: 28.1 µM (inactive)
[18]
  GI50: 21.9 µM (inactive)
[19]
  GI50: 16.4 µM (inactive)
[20]
  GI50: 41.4 µM
[21]
  GI50: 63.1 µM (inactive)
[22]
  GI50: 62.1 µM (inactive)
[23]
  GI50: > 100 µM (inactive)
[24]
  GI50: 30.5 µM (inactive)
[25]
  GI50: 12.4 µM (inactive)
[26]
  GI50: 10.5 µM (inactive)
[27]
  GI50: > 100 µM (inactive)
[28]
  GI50: 24.9 µM (inactive)
[29]
  GI50: 58.5 µM (inactive)
[30]
  GI50: 27.7 µM (inactive)
[31]
  GI50: 55 µM (inactive)
[32]
  GI50: 11.2 µM (inactive)
[33]
  GI50: > 100 µM (inactive)
[34]
  GI50: 17.7 µM (inactive)
[35]
  GI50: 55.5 µM (inactive)
[36]
  GI50: 25.6 µM (inactive)
[37]
  GI50: 35.4 µM (inactive)
[38]
  GI50: 17.8 µM (inactive)
[39]
  GI50: 76.9 µM (inactive)
[40]
  GI50: 26.2 µM (inactive)
[41]
  GI50: 44.4 µM (inactive)
[42]
  GI50: 23.1 µM (inactive)
[43]
  GI50: 15.5 µM (inactive)
[44]
  GI50: 19.7 µM (inactive)
[45]
  GI50: 15.1 µM (inactive)
[46]
  GI50: 52 µM (inactive)
[47]
  GI50: 23.1 µM (inactive)
[48]
  GI50: 19.9 µM (inactive)
[49]
  GI50: 34.6 µM (inactive)
[50]
  GI50: 41.1 µM (inactive)
[51]
  GI50: 19.8 µM (inactive)
[52]
  GI50: 57.1 µM (inactive)

## Cc1c(O)c(=O)ccn1CCc1c[nH]c2ccccc12
[1]
  GI50: 8.75 µM (inactive)
[2]
  GI50: 3.69 µM (inactive)
[3]
  GI50: 7.23 µM (inactive)
[5]
  GI50: 3.08 µM (inactive)
[7]
  GI50: 3.1 µM (inactive)
[8]
  GI50: 12.5 µM (inactive)
[9]
  GI50: 3.92 µM (inactive)
[10]
  GI50: 28.4 µM (inactive)
[11]
  GI50: 4.81 µM (inactive)
[12]
  GI50: 6.52 µM (inactive)
[13]
  GI50: 9.35 µM (inactive)
[14]
  GI50: 11.7 µM (inactive)
[53]
  GI50: 19.4 µM (inactive)
[16]
  GI50: 4.89 µM (inactive)
[17]
  GI50: 22.3 µM (inactive)
[18]
  GI50: 20.7 µM (inactive)
[19]
  GI50: 6.44 µM (inactive)
[20]
  GI50: 0.397 µM
[21]
  GI50: 4.11 µM (inactive)
[22]
  GI50: 6.55 µM (inactive)
[23]
  GI50: 6.81 µM (inactive)
[26]
  GI50: 2.44 µM (inactive)
[27]
  GI50: 3.93 µM (inactive)
[28]
  GI50: 0.0335 µM (active)
[29]
  GI50: 22 µM (inactive)
[31]
  GI50: 8.39 µM (inactive)
[54]
  GI50: 1.21 µM (inactive)
[34]
  GI50: 6.61 µM (inactive)
[35]
  GI50: 14.6 µM (inactive)
[36]
  GI50: 12.6 µM (inactive)
[37]
  GI50: 7.48 µM (inactive)
[38]
  GI50: 0.718 µM (active)
[39]
  GI50: 3.75 µM (inactive)
[40]
  GI50: 17.2 µM (inactive)
[41]
  GI50: 14.4 µM (inactive)
[44]
  GI50: 6.31 µM (inactive)
[45]
  GI50: 5.73 µM (inactive)
[55]
  GI50: 0.483 µM (active)
[47]
  GI50: 8.2 µM (inactive)
[48]
  GI50: 18.2 µM (inactive)
[49]
  GI50: 19.7 µM (inactive)
[50]
  GI50: 23 µM (inactive)
[51]
  GI50: 2.55 µM (inactive)
[52]
  GI50: 20.5 µM (inactive)

## CNC(=O)OCC1=C(COC(=O)NC)CN(c2ccccc2)C1
[1]
  GI50: > 100 µM (inactive)
[2]
  GI50: > 100 µM (inactive)
[3]
  GI50: > 100 µM (inactive)
[4]
  GI50: > 100 µM (inactive)
[5]
  GI50: > 100 µM (inactive)
[6]
  GI50: > 100 µM (inactive)
[7]
  GI50: > 100 µM (inactive)
[8]
  GI50: > 100 µM (inactive)
[9]
  GI50: > 100 µM (inactive)
[10]
  GI50: > 100 µM (inactive)
[11]
  GI50: > 100 µM (inactive)
[56]
  GI50: > 100 µM (inactive)
[12]
  GI50: > 100 µM (inactive)
[13]
  GI50: > 100 µM (inactive)
[14]
  GI50: > 100 µM (inactive)
[57]
  GI50: > 100 µM (inactive)
[15]
  GI50: > 100 µM (inactive)
[16]
  GI50: > 100 µM (inactive)
[17]
  GI50: > 100 µM (inactive)
[58]
  GI50: > 100 µM (inactive)
[18]
  GI50: > 100 µM (inactive)
[19]
  GI50: > 100 µM (inactive)
[20]
  GI50: > 100 µM
[21]
  GI50: > 100 µM (inactive)
[22]
  GI50: > 100 µM (inactive)
[23]
  GI50: > 100 µM (inactive)
[24]
  GI50: > 100 µM (inactive)
[25]
  GI50: > 100 µM (inactive)
[26]
  GI50: > 100 µM (inactive)
[27]
  GI50: > 100 µM (inactive)
[28]
  GI50: > 100 µM (inactive)
[29]
  GI50: > 100 µM (inactive)
[30]
  GI50: > 100 µM (inactive)
[31]
  GI50: > 100 µM (inactive)
[32]
  GI50: > 100 µM (inactive)
[33]
  GI50: > 100 µM (inactive)
[34]
  GI50: > 100 µM (inactive)
[35]
  GI50: > 100 µM (inactive)
[36]
  GI50: > 100 µM (inactive)
[37]
  GI50: > 100 µM (inactive)
[38]
  GI50: > 100 µM (inactive)
[39]
  GI50: > 100 µM (inactive)
[40]
  GI50: > 100 µM (inactive)
[41]
  GI50: > 100 µM (inactive)
[42]
  GI50: > 100 µM (inactive)
[43]
  GI50: > 100 µM (inactive)
[44]
  GI50: > 100 µM (inactive)
[45]
  GI50: > 100 µM (inactive)
[46]
  GI50: > 100 µM (inactive)
[55]
  GI50: > 100 µM (inactive)
[47]
  GI50: > 100 µM (inactive)
[48]
  GI50: > 100 µM (inactive)
[49]
  GI50: > 100 µM (inactive)
[50]
  GI50: > 100 µM (inactive)
[51]
  GI50: > 100 µM (inactive)
[52]
  GI50: > 100 µM (inactive)
